Results published in ChEMBL document CHEMBL1240489, “Discovery of N-{1-[3-(3-oxo-2,3-dihydrobenzo[1,4]oxazin-4-yl)propyl]piperidin-4-yl}-2-phenylacetamide (Lu AE51090): an allosteric muscarinic M1 receptor agonist with unprecedented selectivity and procognitive potential” (J Med Chem, 2010).

Columns and labels:
[1] = target: Muscarinic acetylcholine receptor M3 (Homo sapiens, UniProt P20309); experiment: Agonist activity at human muscarinic M3 receptor expressed in BHK-21 cells assessed as increase of acetylcholine-induced calcium flux at 10 uM by FLIPR assay relative to acetylcholine; format: functional, cell-based
[2] = target: T1, Muscarinic acetylcholine receptor M4 (Homo sapiens, UniProt P08173); experiment: Displacement of [3H]-4-DAMP from human muscarinic M4 receptor expressed in BHK-21 cells; format: cell-based
T1 sequence (P08173 whole entry): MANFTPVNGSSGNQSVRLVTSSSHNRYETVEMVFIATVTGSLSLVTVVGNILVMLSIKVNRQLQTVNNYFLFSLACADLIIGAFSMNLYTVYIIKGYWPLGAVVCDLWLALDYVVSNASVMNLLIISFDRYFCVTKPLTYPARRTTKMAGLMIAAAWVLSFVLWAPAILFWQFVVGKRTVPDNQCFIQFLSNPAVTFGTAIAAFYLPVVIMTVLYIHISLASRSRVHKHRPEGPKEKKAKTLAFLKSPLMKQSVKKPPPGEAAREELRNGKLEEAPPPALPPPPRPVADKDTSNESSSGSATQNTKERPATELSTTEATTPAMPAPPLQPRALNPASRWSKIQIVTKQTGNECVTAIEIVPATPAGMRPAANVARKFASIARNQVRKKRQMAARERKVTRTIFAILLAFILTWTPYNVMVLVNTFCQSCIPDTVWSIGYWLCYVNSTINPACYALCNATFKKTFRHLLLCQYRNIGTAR

Rattus norvegicus = species: Rattus norvegicus; experiment: Hepatic blood flow in rat; format: ADME, organism-based, Liver
Mus musculus [3] = experiment: Reversal of 60 seconds delay-induced memory decay in sc dosed C57Bl/6J mouse assessed as positive alteration administered for 1 week by Y-maze test; format: functional, organism-based
Mus musculus [4] = experiment: Reversal of 0 seconds delay-induced memory decay in C57Bl/6J mouse assessed as positive alteration at 0.31 to 20 mg/kg, sc for 1 week by Y-maze test; format: functional; conditions: dose mg/kg 0.31-20; route subcutaneous
[5] = Drug level in C57/6J mouse brain at 20 mg/kg, sc after 60 mins; format: ADME, organism-based; design: dose 20 mg/kg, route subcutaneous; conditions: read-out: Activity
Acetylcholinesterase = Acetylcholinesterase (Homo sapiens, UniProt P22303); experiment: Binding affinity to human acetylcholine esterase by radioligand displacement assay
D(2) dopamine receptor = D(2) dopamine receptor (Homo sapiens, UniProt P14416); experiment: Binding affinity to human dopamine D2S receptor by radioligand displacement assay
Mu-type opioid receptor = Mu-type opioid receptor (Homo sapiens, UniProt P35372); experiment: Binding affinity to human mu opioid receptor agonist site by radioligand displacement assay
Melanocortin receptor 4 = Melanocortin receptor 4 (Homo sapiens, UniProt P32245); experiment: Binding affinity to human MC4 receptor by radioligand displacement assay
[6] = target: 5-hydroxytryptamine receptor 1A (Homo sapiens, UniProt P08908); experiment: Binding affinity to human 5-HT1A receptor by radioligand displacement assay
[7] = target: Alpha-2A adrenergic receptor (Homo sapiens, UniProt P08913); experiment: Binding affinity to human adrenergic alpha2A receptor by radioligand displacement assay
Endothelin-1 receptor = Endothelin-1 receptor (Homo sapiens, UniProt P25101); experiment: Binding affinity to human ETA receptor by radioligand displacement assay
[8] = target: 5-hydroxytryptamine receptor 4 (Homo sapiens, UniProt Q13639); experiment: Binding affinity to human 5-HT4e receptor by radioligand displacement assay
[9] = target: Sodium-dependent dopamine transporter (Homo sapiens, UniProt Q01959); experiment: Binding affinity to human dopamine transporter by radioligand displacement assay
D(4) dopamine receptor = D(4) dopamine receptor (Homo sapiens, UniProt P21917); experiment: Binding affinity to human D4.4 receptor by radioligand displacement assay
[10] = target: Neuronal acetylcholine receptor; alpha4/beta2 (Homo sapiens, UniProt P17787+P43681); experiment: Binding affinity to nAChR alpha4beta2 receptor by radioligand displacement assay; format: protein-complex assay
Adenosine receptor A1 = Adenosine receptor A1 (Homo sapiens, UniProt P30542); experiment: Binding affinity to human adenosine A1 receptor agonist site by radioligand displacement assay
[11] = target: Gastrin/cholecystokinin type B receptor (Homo sapiens, UniProt P32239); experiment: Binding affinity to human CCK2 receptor by radioligand displacement assay
Histamine H2 receptor = Histamine H2 receptor (Homo sapiens, UniProt P25021); experiment: Binding affinity to human histamine H2 receptor by radioligand displacement assay
[12] = target: Ribosyldihydronicotinamide dehydrogenase [quinone] (Homo sapiens, UniProt P16083); experiment: Binding affinity to ML2 (MT3) receptor by radioligand displacement assay
Substance-P receptor = Substance-P receptor (Homo sapiens, UniProt P25103); experiment: Binding affinity to human NK1 receptor by radioligand displacement assay
[13] = Binding affinity to Ca2+ channel by radioligand displacement assay
[14] = Binding affinity to GABA transporter by radioligand displacement assay
[15] = target: 5-hydroxytryptamine receptor 3A (Homo sapiens, UniProt P46098); experiment: Binding affinity to human 5-HT3 receptor by radioligand displacement assay
Adenosine receptor A2a = Adenosine receptor A2a (Homo sapiens, UniProt P29274); experiment: Binding affinity to human adenosine A2A receptor by radioligand displacement assay
[16] = target: Alpha-1D adrenergic receptor (Homo sapiens, UniProt P25100); experiment: Binding affinity to human adrenergic Alpha-1D receptor by radioligand displacement assay
[17] = target: T2, Muscarinic acetylcholine receptor M5 (Homo sapiens, UniProt P08912); experiment: biochemical
T2 sequence (P08912 whole entry): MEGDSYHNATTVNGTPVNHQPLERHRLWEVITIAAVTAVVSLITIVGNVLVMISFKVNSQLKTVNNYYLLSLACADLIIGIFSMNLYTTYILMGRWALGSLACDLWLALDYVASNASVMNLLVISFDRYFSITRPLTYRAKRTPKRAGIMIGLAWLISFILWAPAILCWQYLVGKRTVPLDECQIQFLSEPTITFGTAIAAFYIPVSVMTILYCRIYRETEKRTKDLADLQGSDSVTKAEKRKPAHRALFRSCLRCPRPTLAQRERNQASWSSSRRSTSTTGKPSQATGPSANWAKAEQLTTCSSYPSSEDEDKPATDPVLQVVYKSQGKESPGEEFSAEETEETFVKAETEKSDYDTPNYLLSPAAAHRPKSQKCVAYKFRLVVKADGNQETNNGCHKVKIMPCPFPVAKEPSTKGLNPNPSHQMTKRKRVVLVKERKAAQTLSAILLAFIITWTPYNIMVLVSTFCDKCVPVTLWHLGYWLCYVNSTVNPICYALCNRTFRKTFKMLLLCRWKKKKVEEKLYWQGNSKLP
Description: Displacement of [3H]-4-DAMP from human muscarinic M5 receptor expressed in BHK-21 cells

[18] = Binding affinity to PDE4 by enzyme assay
[19] = target: Mitogen-activated protein kinase 14 (Homo sapiens, UniProt Q16539); experiment: Binding affinity to p38alpha by enzyme assay
[20] = target: Urotensin-2 receptor (Homo sapiens) (UniProt Q9UKP6); experiment: Binding affinity to human UT1 receptor by radioligand displacement assay

Chain of Melanocortin receptor 4 (P32245 whole entry): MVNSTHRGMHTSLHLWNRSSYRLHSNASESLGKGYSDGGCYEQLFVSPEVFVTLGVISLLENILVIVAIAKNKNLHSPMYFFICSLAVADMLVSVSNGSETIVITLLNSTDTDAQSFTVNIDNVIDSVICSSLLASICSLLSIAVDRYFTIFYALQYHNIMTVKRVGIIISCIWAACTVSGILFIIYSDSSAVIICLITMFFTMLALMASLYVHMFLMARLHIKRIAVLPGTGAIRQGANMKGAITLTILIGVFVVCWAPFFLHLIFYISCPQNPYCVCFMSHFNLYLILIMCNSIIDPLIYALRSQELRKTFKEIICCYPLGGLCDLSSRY
Chain of Neuronal acetylcholine receptor; alpha4/beta2 (P17787 whole entry): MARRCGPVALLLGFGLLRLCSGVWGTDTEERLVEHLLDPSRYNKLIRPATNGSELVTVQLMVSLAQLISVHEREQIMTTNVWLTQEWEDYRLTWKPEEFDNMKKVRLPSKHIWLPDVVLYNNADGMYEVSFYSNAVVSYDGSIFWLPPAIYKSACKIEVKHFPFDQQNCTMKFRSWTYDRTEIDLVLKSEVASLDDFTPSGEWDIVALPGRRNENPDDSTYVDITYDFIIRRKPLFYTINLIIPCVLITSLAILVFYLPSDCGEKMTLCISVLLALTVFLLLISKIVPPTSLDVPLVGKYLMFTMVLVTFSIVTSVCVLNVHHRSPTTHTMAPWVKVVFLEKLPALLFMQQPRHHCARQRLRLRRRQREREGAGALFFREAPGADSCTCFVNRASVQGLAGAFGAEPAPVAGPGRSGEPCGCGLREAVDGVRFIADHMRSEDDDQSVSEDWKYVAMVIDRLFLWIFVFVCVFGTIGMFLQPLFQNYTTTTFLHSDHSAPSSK
Chain of Neuronal acetylcholine receptor; alpha4/beta2 (P43681 whole entry): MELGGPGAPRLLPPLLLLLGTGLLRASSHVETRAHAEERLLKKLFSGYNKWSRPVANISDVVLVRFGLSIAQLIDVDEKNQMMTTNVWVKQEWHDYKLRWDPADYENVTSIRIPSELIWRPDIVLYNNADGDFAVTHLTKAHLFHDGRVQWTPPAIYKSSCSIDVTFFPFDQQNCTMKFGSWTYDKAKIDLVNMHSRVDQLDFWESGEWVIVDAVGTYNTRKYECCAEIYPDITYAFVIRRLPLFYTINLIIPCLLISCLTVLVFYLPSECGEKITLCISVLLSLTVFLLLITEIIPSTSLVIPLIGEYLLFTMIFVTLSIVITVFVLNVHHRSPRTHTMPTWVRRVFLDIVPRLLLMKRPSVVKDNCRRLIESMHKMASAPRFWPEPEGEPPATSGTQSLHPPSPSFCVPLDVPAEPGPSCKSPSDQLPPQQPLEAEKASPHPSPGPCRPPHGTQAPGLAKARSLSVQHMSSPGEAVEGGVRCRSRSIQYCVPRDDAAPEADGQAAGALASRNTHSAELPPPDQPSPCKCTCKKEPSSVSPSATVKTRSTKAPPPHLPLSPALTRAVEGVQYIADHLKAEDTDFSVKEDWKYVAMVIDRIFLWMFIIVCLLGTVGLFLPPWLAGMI
Chain of 5-hydroxytryptamine receptor 3A (P46098 whole entry): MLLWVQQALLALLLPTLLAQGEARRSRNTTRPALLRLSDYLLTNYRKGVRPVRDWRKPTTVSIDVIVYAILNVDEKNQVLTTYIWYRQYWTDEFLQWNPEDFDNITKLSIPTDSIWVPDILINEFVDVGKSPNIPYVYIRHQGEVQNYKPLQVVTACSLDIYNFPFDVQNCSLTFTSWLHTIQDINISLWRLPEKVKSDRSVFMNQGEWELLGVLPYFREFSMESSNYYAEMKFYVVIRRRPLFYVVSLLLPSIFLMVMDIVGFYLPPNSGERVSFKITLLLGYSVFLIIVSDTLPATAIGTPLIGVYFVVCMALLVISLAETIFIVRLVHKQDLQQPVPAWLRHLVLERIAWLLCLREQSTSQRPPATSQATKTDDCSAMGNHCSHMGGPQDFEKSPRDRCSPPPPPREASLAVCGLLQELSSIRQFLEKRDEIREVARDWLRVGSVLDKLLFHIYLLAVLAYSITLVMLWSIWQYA
Chain of Adenosine receptor A2a (P29274 whole entry): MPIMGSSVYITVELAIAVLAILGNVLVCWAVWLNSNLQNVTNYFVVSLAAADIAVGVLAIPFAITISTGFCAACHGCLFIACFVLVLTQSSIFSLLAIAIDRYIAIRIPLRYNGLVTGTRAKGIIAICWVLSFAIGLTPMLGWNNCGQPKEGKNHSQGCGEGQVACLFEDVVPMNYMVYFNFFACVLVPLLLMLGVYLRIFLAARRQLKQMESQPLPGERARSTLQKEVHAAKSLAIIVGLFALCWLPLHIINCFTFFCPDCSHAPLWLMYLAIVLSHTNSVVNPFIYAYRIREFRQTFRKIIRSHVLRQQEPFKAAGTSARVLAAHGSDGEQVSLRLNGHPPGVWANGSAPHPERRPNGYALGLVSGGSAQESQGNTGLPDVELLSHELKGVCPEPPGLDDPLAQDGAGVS
Chain of Alpha-2A adrenergic receptor (P08913 whole entry): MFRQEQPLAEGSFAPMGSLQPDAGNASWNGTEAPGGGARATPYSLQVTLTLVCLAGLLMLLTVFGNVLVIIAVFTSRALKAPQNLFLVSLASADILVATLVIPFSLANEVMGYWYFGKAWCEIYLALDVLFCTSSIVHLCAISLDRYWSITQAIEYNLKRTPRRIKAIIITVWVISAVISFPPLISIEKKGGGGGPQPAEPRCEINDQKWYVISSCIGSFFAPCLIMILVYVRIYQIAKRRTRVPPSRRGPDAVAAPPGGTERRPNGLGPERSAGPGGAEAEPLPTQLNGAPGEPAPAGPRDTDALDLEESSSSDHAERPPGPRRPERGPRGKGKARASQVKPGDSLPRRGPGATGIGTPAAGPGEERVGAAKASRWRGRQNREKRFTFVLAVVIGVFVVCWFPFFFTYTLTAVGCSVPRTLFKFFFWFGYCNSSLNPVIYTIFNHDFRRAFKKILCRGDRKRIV
Chain of Ribosyldihydronicotinamide dehydrogenase [quinone] (P16083 whole entry): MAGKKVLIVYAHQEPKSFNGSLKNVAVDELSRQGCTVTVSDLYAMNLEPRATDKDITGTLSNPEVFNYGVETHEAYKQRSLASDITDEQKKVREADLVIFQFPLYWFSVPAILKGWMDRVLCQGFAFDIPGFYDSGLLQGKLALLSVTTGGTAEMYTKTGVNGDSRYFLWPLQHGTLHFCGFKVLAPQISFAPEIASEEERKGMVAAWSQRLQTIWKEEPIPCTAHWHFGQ
Chain of Muscarinic acetylcholine receptor M3 (P20309 whole entry, looked up): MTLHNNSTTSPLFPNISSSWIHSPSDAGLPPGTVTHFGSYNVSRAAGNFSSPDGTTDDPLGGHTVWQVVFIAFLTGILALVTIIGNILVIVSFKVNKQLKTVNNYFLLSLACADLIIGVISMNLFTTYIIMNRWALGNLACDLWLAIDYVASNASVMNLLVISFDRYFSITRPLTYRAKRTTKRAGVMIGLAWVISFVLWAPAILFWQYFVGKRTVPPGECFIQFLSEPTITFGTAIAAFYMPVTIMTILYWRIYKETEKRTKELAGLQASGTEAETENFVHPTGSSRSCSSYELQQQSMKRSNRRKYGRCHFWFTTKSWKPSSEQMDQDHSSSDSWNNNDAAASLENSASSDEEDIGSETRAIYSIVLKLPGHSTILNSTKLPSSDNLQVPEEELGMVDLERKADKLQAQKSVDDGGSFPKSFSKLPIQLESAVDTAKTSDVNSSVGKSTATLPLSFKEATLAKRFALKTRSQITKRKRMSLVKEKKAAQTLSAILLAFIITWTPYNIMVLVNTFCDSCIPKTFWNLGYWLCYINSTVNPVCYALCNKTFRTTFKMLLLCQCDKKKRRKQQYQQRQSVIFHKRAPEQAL
Chain of D(2) dopamine receptor (P14416 whole entry): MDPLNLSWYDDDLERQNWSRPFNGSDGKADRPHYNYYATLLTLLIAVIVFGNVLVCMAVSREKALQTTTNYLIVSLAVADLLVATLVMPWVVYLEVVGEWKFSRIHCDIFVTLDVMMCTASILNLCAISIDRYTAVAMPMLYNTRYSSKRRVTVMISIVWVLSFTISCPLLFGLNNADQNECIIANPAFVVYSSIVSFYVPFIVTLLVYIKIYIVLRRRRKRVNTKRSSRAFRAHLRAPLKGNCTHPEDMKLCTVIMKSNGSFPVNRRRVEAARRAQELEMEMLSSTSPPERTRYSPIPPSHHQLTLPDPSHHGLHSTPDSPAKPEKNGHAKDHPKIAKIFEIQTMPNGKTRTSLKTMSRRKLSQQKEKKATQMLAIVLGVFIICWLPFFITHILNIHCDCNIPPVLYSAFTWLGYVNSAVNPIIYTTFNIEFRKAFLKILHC
Chain of D(4) dopamine receptor (P21917 whole entry): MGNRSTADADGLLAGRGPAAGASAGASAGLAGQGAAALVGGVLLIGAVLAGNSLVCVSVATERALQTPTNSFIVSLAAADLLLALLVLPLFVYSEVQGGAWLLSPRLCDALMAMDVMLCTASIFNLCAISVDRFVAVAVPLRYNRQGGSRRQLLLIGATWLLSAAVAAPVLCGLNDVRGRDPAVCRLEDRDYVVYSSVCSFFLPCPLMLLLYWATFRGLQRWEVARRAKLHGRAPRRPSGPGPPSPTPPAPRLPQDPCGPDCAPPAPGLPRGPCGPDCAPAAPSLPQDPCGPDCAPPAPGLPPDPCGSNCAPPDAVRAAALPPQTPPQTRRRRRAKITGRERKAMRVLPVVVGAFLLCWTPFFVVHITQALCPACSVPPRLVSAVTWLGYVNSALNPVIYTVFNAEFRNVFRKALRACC
Chain of Mitogen-activated protein kinase 14 (Q16539 whole entry): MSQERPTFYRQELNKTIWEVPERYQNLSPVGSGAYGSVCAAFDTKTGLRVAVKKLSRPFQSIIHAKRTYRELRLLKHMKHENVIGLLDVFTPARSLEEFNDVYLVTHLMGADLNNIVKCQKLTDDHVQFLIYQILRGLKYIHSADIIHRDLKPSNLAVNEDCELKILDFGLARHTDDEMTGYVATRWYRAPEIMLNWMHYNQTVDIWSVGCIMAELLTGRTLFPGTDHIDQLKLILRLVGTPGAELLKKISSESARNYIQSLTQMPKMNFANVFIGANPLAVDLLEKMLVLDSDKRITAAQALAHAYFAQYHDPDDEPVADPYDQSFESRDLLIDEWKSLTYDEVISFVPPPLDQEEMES

O=C(Cc1ccccc1)NC1CCN(CCCN2C(=O)COc3ccccc32)CC1
Emax [1]: 1% | Ki [2]: 6900 nM | QH (Rattus norvegicus): 20 mL/min | Activity (Mus musculus [3]): Dose-dependent effect | Activity (Mus musculus [4]): 80% | concentration at 1 h [5]: 240 ng/g | Ki (Acetylcholinesterase): ≥ 1000 nM | Ki (D(2) dopamine receptor): ≥ 1000 nM | Ki (Mu-type opioid receptor): ≥ 1000 nM | Ki (Melanocortin receptor 4): ≥ 1000 nM | Ki [6]: ≥ 1000 nM | Ki [7]: ≥ 1000 nM | Ki (Endothelin-1 receptor): ≥ 1000 nM | Ki [8]: ≥ 1000 nM | Ki [9]: ≥ 1000 nM | Ki (D(4) dopamine receptor): ≥ 1000 nM | Ki [10]: ≥ 1000 nM | Ki (Adenosine receptor A1): ≥ 1000 nM | Ki [11]: ≥ 1000 nM | Ki (Histamine H2 receptor): ≥ 1000 nM | Ki [12]: ≥ 1000 nM | Ki (Substance-P receptor): ≥ 1000 nM | Ki [13]: ≥ 1000 nM | Ki [14]: ≥ 1000 nM | Ki [15]: ≥ 1000 nM | Ki (Adenosine receptor A2a): ≥ 1000 nM | Ki [16]: ≥ 1000 nM | Ki [17]: 8900 nM | Ki [18]: ≥ 1000 nM | Ki [19]: ≥ 1000 nM | Ki [20]: ≥ 1000 nM
